According to patent US7037644B1, “Means and methods for monitoring non-nucleoside reverse transcriptase inhibitor antiretroviral therapy and guiding therapeutic decisions in the treatment of HIV/AIDS” (ViroLogic, Inc., priority 1998, dated 2006):
“Also recorded” adds a separate entry of the source.

Assays:
[1] = system: RTV-1057, patient 98-1057 (RT A98G, Y181C); test: Phenotypic susceptibility assay (patient RTV); assay type: cell-based, HIV-1; conditions: patient RTV pool
Description: (§1) The resistance test vectors containing a functional luciferase gene cassette were constructed and host cells were transfected with the resistance test vector DNA. The resistant test vectors contained patient-derived reverse transcriptase and protease sequences that were either susceptible or resistant to the antiretroviral agents, such as nucleoside reverse transcriptase inhibitors, non-nucleoside reverse transcriptase inhibitors and protease inhibitors. […] The IC50 values were determined by plotting percent drug inhibition vs. log10 drug concentration.
(§2) Host cells were seeded in 10-cm-diameter dishes and were transfected several days after plating with resistance test vector plasmid DNA and the envelope expression vector. […] HIV capsid protein (p24) levels in the harvested cell culture media were determined by an EIA method as described by the manufacturer (SIAC; Frederick, Md.). […] The inhibitory effect of the drug was determined using the following equation: % luciferase inhibition=1−(RLUluc [drug]÷RLUluc)×100 where RLUluc [drug] is the relative light unit of luciferase activity in infected cells in the presence of drug and RLUluc is the Relative Light Unit of luciferase activity in infected cells in the absence of drug. […]

[2] = system: RTV-757, patient 98-757 (RT V106A, V108I, V189L); test: Phenotypic susceptibility assay (patient RTV); assay type: cell-based, HIV-1; conditions: patient RTV pool
Source text: (§3) The resistance test vectors containing a functional luciferase gene cassette were constructed and host cells were transfected with the resistance test vector DNA. The resistant test vectors contained patient-derived reverse transcriptase and protease sequences that were either susceptible or resistant to the antiretroviral agents, such as nucleoside reverse transcriptase inhibitors, non-nucleoside reverse transcriptase inhibitors and protease inhibitors. The resistance test vector viral particles produced by transfecting the resistance test vector DNA into host cells, either in the presence or absence of protease inhibitors, were used to infect target host cells grown either in the absence of NRTI or NNRTI or in the presence of increasing concentrations of the drug. The amount of luciferase activity produced in infected target host cells in the presence of drug was compared to the amount of luciferase produced in infected target host cells in the absence of drug. Drug resistance was measured as the amount of drug required to inhibit by 50% the luciferase activity detected in the absence of drug (inhibitory concentration 50%, IC50). The IC50 values were determined by plotting percent drug inhibition vs. log10 drug concentration.
(§4) Host cells were seeded in 10-cm-diameter dishes and were transfected several days after plating with resistance test vector plasmid DNA and the envelope expression vector. Transfections were performed using a calcium-phosphate precipitation procedure. The cell culture media containing the DNA precipitate was replaced with fresh medium, from one to 24 hours, after transfection. Cell culture media containing resistance test vector viral particles was harvested one to four days after transfection and was passed through a […] filter before being stored at […]. HIV capsid protein (p24) levels in the harvested cell culture media were determined by an EIA method as described by the manufacturer (SIAC; Frederick, Md.). Before infection, target cells (293 and 293/T) were plated in cell culture media. Control infections were performed using cell culture media from mock transfections (no DNA) or transfections containing the resistance test vector plasmid DNA without the envelope expression plasmid. One to three or more days after infection the media was removed and cell lysis buffer (Promega) was added to each well. Cell lysates were assayed for luciferase activity (FIG. 3). The inhibitory effect of the drug was determined using the following equation: % luciferase inhibition=1−(RLUluc [drug]÷RLUluc)×100 where RLUluc [drug] is the relative light unit of luciferase activity in infected cells in the presence of drug and RLUluc is the Relative Light Unit of luciferase activity in infected cells in the absence of drug. IC50 values were obtained from the sigmoidal curves that were generated from the data by plotting the percent inhibition of luciferase activity vs. the log10 drug concentration. The drug inhibition curves are shown in (FIG. 3).
A resistance test vector was constructed as described in Example 1 from a patient sample designated 98-1033. […]

[3] = system: patient 487 virus (RT M184V, K103N); test: Phenotypic susceptibility assay (patient virus); assay type: cell-based, HIV; conditions: patient 487, FIG. 4
Source text: Phenotypic drug susceptibility and resistance profile: patient 487. […] This is an example of the first pattern of NNRTI susceptibility/resistance.
as §1, §2

P225H-RTV = test: Phenotypic susceptibility assay (site directed mutant RTV); assay type: cell-based, HIV-1; conditions: P225H alone vs wild type control RTV
Source text: as §3, §4
(§5) Genotypic changes that are observed to correlate with changes in phenotypic patterns of drug susceptibility are evaluated by construction of resistance test vectors containing the specific mutation on a defined, wild-type (drug susceptible) genetic background. Mutations may be incorporated alone and/or in combination with other known drug resistance mutations that are thought to modulate the susceptibility of HIV to a certain drug or class of drugs. Mutations are introduced into the resistance test vector through any of the widely known methods for site-directed mutagenesis. In one embodiment of this invention the mega-primer PCR method for site-directed mutagenesis is used. […]

[4] = system: RTV with P236L plus K103N, Y181C or both; test: as above; assay type: cell-based, HIV-1; conditions: P236L with K103N and/or Y181C vs RTV lacking P236L
Source text: as §3, §4, §5

[5] = system: G190S-RTV and G190A-RTV (mutation at codon 190); test: as above; assay type: cell-based, HIV-1; conditions: G190A or G190S vs wild type reference RTV; also statements on codon 190 alone or with 103/101
Description: as §1, §2

CC(C)Nc1cccnc1N1CCN(C(=O)c2cc3cc(NS(C)(=O)=O)ccc3[nH]2)CC1 [delavirdine]
decrease in susceptibility (fold, IC50) [1]: 35 fold | decrease in susceptibility (fold, IC50) [2]: 10 fold | change in susceptibility [3]: increased resistance | change in susceptibility (P225H-RTV): more susceptible; also recorded: increase; also recorded: increase3s susceptibility | change in susceptibility [4]: less susceptible; also recorded: additional reduction; also recorded: severe resistance | change in susceptibility [5]: slightly more susceptible; also recorded: slightly increase susceptibility; also recorded: slight increase

O=C1Nc2ccc(Cl)cc2[C@@](C#CC2CC2)(C(F)(F)F)O1 [efavirenz]
change in susceptibility [4]: restores a significant portion of the loss of susceptibility

Cc1ccnc2c1NC(=O)c1cccnc1N2C1CC1 [nevirapine]
decrease in susceptibility (fold, IC50) [1]: 610 fold | decrease in susceptibility (fold, IC50) [2]: greater than 800 fold | change in susceptibility [3]: increased resistance | change in susceptibility (P225H-RTV): No significant change; also recorded: little or no change | change in susceptibility [5]: markedly less susceptible; also recorded: greatly reduce susceptibility; also recorded: large decrease
